In publication PMC12564639, “Discovery of a Novel Anticoagulant Cystine Knot Peptide from Spider Venom Gland Transcriptome” (International Journal of Molecular Sciences, 2025):
Peptide text beside a SMILES is read from it.

How the values were obtained:
[1] = system: human keratinocytes (HaCaT); experiment: Cytotoxicity (CCK-8), HaCaT; format: cell-based; conditions: 24 h, n = 3
Method: The cytotoxicity of GC38 was evaluated in human embryonic kidney cells (HEK293T), human keratinocytes (HaCaT), and murine macrophage (RAW264.7) cell lines. The cells were from Kunming Cell Bank, Chinese Academy of Sciences. HEK293T and HaCaT cells were cultured in DMEM supplemented with 10% fetal bovine serum (FBS) and 1% penicillin-streptomycin, and RAW264.7 cells were maintained in RPMI 1640 containing 10% FBS and 1% penicillin–streptomycin, with all cell lines incubated at 37 °C under 5% CO2. For cytotoxicity assessment, cells were seeded at a density of 1 × 10^5 cells per well in 96-well plates and incubated for 12 h. […] After 24 h incubation, cell viability was determined using the CCK-8 assay (10 μL/well). Absorbance was measured at 450 nm using a multi-mode microplate reader (BioTek Synergy™ H1, Winooski, VT, USA). Untreated cells and cells treated with 10% DMSO served as negative and positive controls, respectively. Viability percentages were calculated relative to the untreated control. All experiments were conducted in triplicate, and data were expressed as mean ± SEM.

[2] = system: mouse red blood cells (RBCs); experiment: Hemolysis assay; format: cell-based; conditions: 50 μM; RBCs 1 × 10^8/mL in PBS, 37 °C, 30 min; absorbance 450 nm; versus 1% Triton X-100; n = 3
Method: The hemolytic activity of GC38 was assessed using mouse red blood cells (RBCs). Fresh […] blood was centrifuged at 1500 rpm for 5 min to isolate RBCs, followed by three washes with sterile PBS and resuspension in PBS with a density of 1 × 10^8 RBCs/mL. GC38 was diluted in PBS to concentrations ranging from 3.125 to 50 μM. For the assay, 100 µL of the RBC suspension was mixed with an equal volume of GC38 solution and incubated at 37 °C for 30 min. After incubation, the samples were centrifuged at 1500 rpm for 5 min to pellet intact RBCs. The absorbance of the supernatant was measured at 450 nm using a multi-mode microplate reader (BioTek Synergy™ H1, Winooski, VT, USA). PBS and 1% Triton X-100-treated groups served as negative and positive controls, respectively. The percentage of hemolysis was calculated by comparing the absorbance values of the samples to those of the controls. All concentrations underwent triplicate testing, with results presented as mean ± SEM.

[3] = molecular target: T1, Human Activated Protein C (APC-1.0) (Homo sapiens, UniProt P04070); experiment: Bio-layer interferometry (BLI) binding; conditions: Octet R2, SA biosensors, biotinylated APC 10 µg/mL, GC38 3.125-50 μM, PBS with 0.02% Tween-20, association 300 s, dissociation 180 s, average of three, read-out: dissociation constant (KD)
T1 construct: purchased Enzyme Research Laboratories, Inc., South Bend, IN, USA APC-1.0
Source text: Human Activated Protein C (APC-1.0) was purchased from Enzyme Research Laboratories, Inc., South Bend, IN, USA. […] Activated Partial Thromboplastin Time (APTT) Test Kit (TC0306) was bought from Senkey Biotechnology Co., Ltd., Kunming, China. Prothrombin Time (PT) Test Kit (GMS10176) was purchased from GENMED Scientifics Inc., Shanghai, China. Streptavidin (SA) Biosensors (18-5019) were obtained from Sartorius AG, Göttingen, Lower Saxony, Germany. PBS (21-040-CVC) was bought from Corning Incorporated, Corning, NY, USA. Tween-20 (BS361B) was purchased from Biosharp Life Sciences, Hefei, Anhui, China. Trifluoroacetic acid (TFA, T818778-500ml, CAS: 76-05-1) and CaCl2 (C805225) were obtained from Macklin Biochemical Co., Ltd., Shanghai, China. L-oxidized glutathione (GSSG, V900363), Rose Bengal Dye (content 95%, CAS: 632-69-9, 330000-5G), and HEPES (V900477-500G) were purchased from Sigma-Aldrich LLC, St. Louis, MO, USA (Shanghai branch: Sigma-Aldrich Shanghai Trading Co., Ltd., Shanghai, China). […]
The binding affinity between APC and GC38 was measured using the Octet® R2 system (ForteBio, Fremont, CA, USA) with Streptavidin (SA) biosensors. […] Data were acquired and analyzed using Octet® Data Acquisition and Analysis software version 8.2. […]

In the case of `CSCC[C@@H]1NC(=O)[C@H](CC(N)=O)NC(=O)CNC(=O)CNC(=O)[C@H](Cc2c[nH]cn2)NC(=O)[C@H](CCCNC(=N)N)NC(=O)CNC(=O)[C@@H]2CSSC[C@@H]3NC(=O)[C@H](CCCNC(=N)N)NC(=O)[C@H](C)NC(=O)CNC(=O)[C@H](CCCCN)NC(=O)CNC(=O)[C@H](CO)NC(=O)[C@@H](NC(=O)CN)CSSC[C@H](NC(=O)[C@H](CSSC[C@@H](C(=O)N[C@@H](CCC(=O)O)C(=O)N[C@@H](Cc4c[nH]c5ccccc45)C(=O)N[C@@H](CC(N)=O)C(=O)N[C@@H](Cc4c[nH]c5ccccc45)C(=O)N[C@@H](CCCCN)C(=O)N[C@H](C(=O)NCC(=O)O)[C@@H](C)O)NC(=O)[C@H](CO)NC(=O)[C@H](CCCCN)NC(=O)[C@H](Cc4ccc(O)cc4)NC1=O)NC(=O)[C@H](CCCCN)NC(=O)[C@H](CO)NC(=O)[C@@H]1CCCN1C(=O)[C@H](C)NC3=O)C(=O)N[C@@H](CO)C(=O)NCC(=O)N[C@@H](CC(C)C)C(=O)N[C@@H](CO)C(=O)N2` [GC38] (HELM PEPTIDE1{G.C.S.G.K.G.A.R.C.A.P.S.K.C.C.S.G.L.S.C.G.R.H.G.G.N.M.Y.K.S.C.E.W.N.W.K.T.G}$PEPTIDE1,PEPTIDE1,2:R3-15:R3|PEPTIDE1,PEPTIDE1,9:R3-20:R3|PEPTIDE1,PEPTIDE1,14:R3-31:R3$$$V2.0), the “cell viability HaCaT” value ([1]; 50 μM, serum-free medium, CCK-8, 450 nm, relative to untreated control) is reported as “greater than 95%”, the “cytotoxicity HaCaT” value ([1]; 0.1–50 μM, CCK-8) is reported as “negligible cytotoxicity” and the hemolytic activity [2] is reported as “below 3%”. It also gave a Kd [3] of 6.16 µM.
